Among the data in US9932314B2, “Pyrazole compounds and their use as T-type calcium channel blockers” (IDORSIA PHARMACEUTICALS LTD, priority 2015, dated 2018) are IC50 values, retold here.

Broadly, the IC50 is the concentration at which inhibition is half-maximal.

For the experiment, the target named is T1, voltage-dependent T-type calcium channel subunit alpha-1G (Cav3.2) (Homo sapiens, UniProt O95180).
T1 construct: expressed in transfected cells; host or cells: HEK293
The experiment in a line: FLIPR calcium flux assay, HEK293 cells recombinantly expressing Cav3.2. In kind it is cell-based. As to conditions: Cav3.2-channel, Fluo-4-AM, 3 min incubation, stimulation with 10 mM CaCl2. The procedure:
In Vitro Methods—Measurement of Calcium Channel Flux by Means of FLIPR Assays.
HEK293 cells recombinantly expressing either voltage-dependent T-type calcium channel subunit […] (Cav3.2) or voltage-dependent L-type calcium channel subunit alpha-1C (Cav1.2) are assayed for calcium flux using the calcium indicator dye Fluo-4-AM (Molecular Devices) and FLIPR technology (Fluorometric Imaging Plate Reader, Molecular Devices) (Xie X, Van Deusen A L, Vitko I, Babu D A, Davies L A, Huynh N, Cheng H, Yang N, Barrett P Q, Perez-Reyes E. Validation of high throughput screening assays against three subtypes of Ca(v)3 T-type channels using molecular and pharmacologic approaches. Assay and Drug Development Technologies 2007, 5(2), 191-203). The HEK293 cells recombinantly expressing Cav3.2 are maintained in DMEM growth medium (Life Technologies) supplemented with 10% Fetal Bovine Serum (FBS), 100 U/ml penicilin (Life Technologies), 100 μg/ml streptomycin (Life Technologies) and 1 mg/ml G418 (Life Technologies). HEK293 cells recombinantly expressing Cav1.2 are maintained in DMEM growth medium (Life technologies) supplemented with 10% FBS, 0.1 mg/ml G418 (Life Technologies), 0.1 mg/ml hygromycin (Life Technologies) and 40 ug/ml zeocin (Life Technologies).
The seeded plates are incubated overnight at 37° C.
The cells are then washed three times with assay buffer (HBSS 1×; 0.375 g/L NaHCO3; 20 mM Hepes; 1% FBS; pH 7.4) and allowed to rest in 50 μl of wash buffer for 30 minutes.
Stock solutions of test compounds are prepared to a concentration of 10 mM in DMSO. For the Cav3.2 assay, serial dilutions of the compounds are prepared in TEAC buffer (100 mM tetraethylammonium chloride; 20 mM Hepes; 2.5 mM CaCl2; 5 mM KCl; 1 mM MgCl2; 1% FBS; pH 7.2), for the Cav1.2 assay serial dilutions are prepared in assay buffer. […] The compounds are incubated with the cells for 3 minutes and Ca2+ entry is stimulated by adding either CaCl2 to a final concentration of 10 mM (Cav3.2 assay) or by adding KCl to a final concentration of 20 mM (Cav1.2 assay). The kinetics of fluorescence increase are recorded for every well and the area under the fluorescence trace for every compound concentration is used to generate inhibition curves using non-linear regression sigmoidal concentration-response curve analysis with in-house software.
For orientation: Calcium assays in cells follow changes in intracellular calcium, usually with a dye or a luminescent sensor.

T1 sequence (O95180 whole entry): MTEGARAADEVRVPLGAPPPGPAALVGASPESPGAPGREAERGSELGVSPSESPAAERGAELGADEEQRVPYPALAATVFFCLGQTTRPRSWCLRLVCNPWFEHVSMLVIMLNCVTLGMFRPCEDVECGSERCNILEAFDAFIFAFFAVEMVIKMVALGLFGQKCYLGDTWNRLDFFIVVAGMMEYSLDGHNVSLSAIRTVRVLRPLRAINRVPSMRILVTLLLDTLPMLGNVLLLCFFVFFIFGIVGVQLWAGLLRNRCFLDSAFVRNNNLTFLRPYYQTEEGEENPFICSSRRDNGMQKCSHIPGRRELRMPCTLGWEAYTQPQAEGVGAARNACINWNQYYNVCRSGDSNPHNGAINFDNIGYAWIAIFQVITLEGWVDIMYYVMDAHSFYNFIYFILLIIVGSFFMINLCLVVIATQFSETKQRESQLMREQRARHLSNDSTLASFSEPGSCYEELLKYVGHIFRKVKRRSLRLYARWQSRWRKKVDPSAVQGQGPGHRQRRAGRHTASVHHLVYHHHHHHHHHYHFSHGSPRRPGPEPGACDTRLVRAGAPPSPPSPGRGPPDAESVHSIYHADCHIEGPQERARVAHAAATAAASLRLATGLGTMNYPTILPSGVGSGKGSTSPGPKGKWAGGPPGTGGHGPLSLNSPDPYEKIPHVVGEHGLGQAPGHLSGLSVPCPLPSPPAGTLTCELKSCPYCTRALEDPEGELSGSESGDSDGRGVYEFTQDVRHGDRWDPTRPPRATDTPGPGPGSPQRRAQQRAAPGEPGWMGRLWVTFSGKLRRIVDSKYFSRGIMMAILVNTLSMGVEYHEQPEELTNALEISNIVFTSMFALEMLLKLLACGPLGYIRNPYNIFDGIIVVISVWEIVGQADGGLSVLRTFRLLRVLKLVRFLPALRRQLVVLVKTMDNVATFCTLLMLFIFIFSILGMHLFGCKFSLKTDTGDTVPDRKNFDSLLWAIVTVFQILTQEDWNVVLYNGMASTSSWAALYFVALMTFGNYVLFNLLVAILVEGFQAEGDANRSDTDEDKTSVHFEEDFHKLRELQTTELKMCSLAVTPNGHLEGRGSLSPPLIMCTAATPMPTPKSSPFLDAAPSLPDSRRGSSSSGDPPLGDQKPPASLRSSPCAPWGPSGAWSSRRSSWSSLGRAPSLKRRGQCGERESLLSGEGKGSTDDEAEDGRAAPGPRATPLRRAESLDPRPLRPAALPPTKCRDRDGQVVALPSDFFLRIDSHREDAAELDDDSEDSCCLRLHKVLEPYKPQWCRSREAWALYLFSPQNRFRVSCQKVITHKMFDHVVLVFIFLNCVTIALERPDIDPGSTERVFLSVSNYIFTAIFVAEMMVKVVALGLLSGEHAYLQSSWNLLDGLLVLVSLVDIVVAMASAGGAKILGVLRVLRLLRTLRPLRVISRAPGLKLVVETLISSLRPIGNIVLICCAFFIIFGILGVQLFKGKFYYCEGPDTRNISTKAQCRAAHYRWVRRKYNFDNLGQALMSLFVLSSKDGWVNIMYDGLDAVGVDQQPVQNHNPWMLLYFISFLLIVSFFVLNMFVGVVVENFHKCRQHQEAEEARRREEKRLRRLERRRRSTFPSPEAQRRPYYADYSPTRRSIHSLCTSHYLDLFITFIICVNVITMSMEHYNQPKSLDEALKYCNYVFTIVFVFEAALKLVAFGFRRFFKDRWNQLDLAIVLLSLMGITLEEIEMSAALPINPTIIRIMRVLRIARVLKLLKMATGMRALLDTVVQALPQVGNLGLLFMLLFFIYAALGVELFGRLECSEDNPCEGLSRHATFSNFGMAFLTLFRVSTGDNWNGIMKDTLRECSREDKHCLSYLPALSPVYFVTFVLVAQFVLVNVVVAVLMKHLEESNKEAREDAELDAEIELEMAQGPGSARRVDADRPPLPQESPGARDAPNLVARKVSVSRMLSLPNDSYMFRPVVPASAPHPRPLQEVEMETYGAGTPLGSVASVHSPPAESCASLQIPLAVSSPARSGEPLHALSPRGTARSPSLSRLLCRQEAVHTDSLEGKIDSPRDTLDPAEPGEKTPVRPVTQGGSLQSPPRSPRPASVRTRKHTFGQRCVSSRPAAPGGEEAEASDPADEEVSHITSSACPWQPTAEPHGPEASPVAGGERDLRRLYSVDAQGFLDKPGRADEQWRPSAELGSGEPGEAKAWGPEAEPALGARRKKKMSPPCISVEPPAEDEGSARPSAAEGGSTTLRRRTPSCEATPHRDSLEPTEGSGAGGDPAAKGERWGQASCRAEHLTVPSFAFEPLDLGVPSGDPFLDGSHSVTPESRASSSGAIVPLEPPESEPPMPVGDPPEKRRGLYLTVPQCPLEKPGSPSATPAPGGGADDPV

For `O=C(Cc1ccc(N2CC(F)(F)C2)cc1)Nc1ccn(Cc2ccc(F)cc2)n1` [Example 49, 2-[4-(3,3-Difluoro-azetidin-1-yl)-phenyl]-N-[1-(4-fluoro-benzyl)-H-pyrazol-3-yl]-acetamide], the IC50 was 0.0092 µM.

For `N#Cc1ccc(Cn2ccc(NC(=O)Cc3ccc(N4CC(F)(F)C4)cc3)n2)cc1` [Example 50, N-[1-(4-Cyano-benzyl)-1H-pyrazol-3-yl]-2-[4-(3,3-difluoro-azetidin-1-yl)-phenyl]-acetamide], the IC50 was determined as 0.011 µM.

Consider `COc1ccc(Cn2ccc(NC(=O)Cc3ccc(N4CC(F)(F)C4)cc3)n2)cc1` [Example 51, 2-[4-(3,3-Difluoro-azetidin-1-yl)-phenyl]-N-[1-(4-methoxy-benzyl)-1H-pyrazol-3-yl]-acetamide], for which the IC50 worked out at 0.016 µM.

Regarding `O=C(Cc1ccc(N2CC(F)(F)C2)cc1)Nc1ccn(Cc2ccc(F)c(F)c2)n1` [Example 52, 2-[4-(3,3-Difluoro-azetidin-1-yl)-phenyl]-N-[1-(3,4-difluoro-benzyl)-1H-pyrazol-3-yl]-acetamide], the IC50 stood at 0.0026 µM.

As for `O=C(Cc1ccc(N2CCC2)cc1)Nc1ccn(Cc2ccc(F)cc2)n1` [Example 53, 2-(4-Azetidin-1-yl-phenyl)-N-[1-(4-fluoro-benzyl)-1H-pyrazol-3-yl]-acetamide], the IC50 came out at 0.0067 µM.

`N#Cc1ccc(Cn2ccc(NC(=O)Cc3ccc(N4CCC4)cc3)n2)cc1` [Example 54, 2-(4-Azetidin-1-yl-phenyl)-N-[1-(4-cyano-benzyl)-1H-pyrazol-3-yl]-acetamide]: the IC50 was found to be 0.028 µM.

With `COc1ccc(Cn2ccc(NC(=O)Cc3ccc(N4CCC4)cc3)n2)cc1` [Example 55, 2-(4-Azetidin-1-yl-phenyl)-N-[1-(4-methoxy-benzyl)-1H-pyrazol-3-yl]-acetamide], the IC50 worked out at 0.033 µM.

With `CN(C)c1ccc(CC(=O)Nc2ccn(Cc3ccc(C#N)c(F)c3)n2)cn1` [Example 58, N-[1-(4-Cyano-3-fluoro-benzyl)-1H-pyrazol-3-yl]-2-(6-dimethylamino-pyridin-3-yl)-acetamide], the IC50 was determined as 0.285 µM.

For `O=C(Cc1ccc(N2CCC2)cc1)Nc1ccn(Cc2ccc(F)c(F)c2)n1` [Example 60, 2-(4-Azetidin-1-yl-phenyl)-N-[1-(3,4-difluoro-benzyl)-1H-pyrazol-3-yl]-acetamide], the IC50 was found to be 0.0047 µM.

Turning to `O=C(Cc1ccc(N2CC[C@H](F)C2)cc1)Nc1ccn(Cc2ccc(F)c(F)c2)n1` [Example 61, N-[1-(3,4-Difluoro-benzyl)-1H-pyrazol-3-yl]-2-[4-((S)-3-fluoro-pyrrolidin-1-yl)-phenyl]-acetamide], the IC50 stood at 0.0034 µM.

For the compound `O=C(Cc1ccc(N2CC(F)C2)cc1)Nc1ccn(Cc2ccc(F)c(F)c2)n1` [Example 62, N-[1-(3,4-Difluoro-benzyl)-1H-pyrazol-3-yl]-2-[4-(3-fluoro-azetidin-1-yl)-phenyl]-acetamide], the IC50 stood at 0.0038 µM.

For the compound `O=C(Cc1ccc(OC2CC2)cc1)Nc1ccn(Cc2ccc(F)cc2)n1` [Example 63, 2-(4-Cyclopropoxy-phenyl)-N-[1-(4-fluoro-benzyl)-1H-pyrazol-3-yl]-acetamide], the IC50 was 0.038 µM.

Consider `N#Cc1ccc(Cn2ccc(NC(=O)Cc3ccc(OC4CC4)cc3)n2)cc1` [Example 64, N-[1-(4-Cyano-benzyl)-1H-pyrazol-3-yl]-2-(4-cyclopropoxy-phenyl)-acetamide], for which the IC50 stood at 0.08 µM.

Turning to `COc1ccc(Cn2ccc(NC(=O)Cc3ccc(OC4CC4)cc3)n2)cc1` [Example 65, 2-(4-Cyclopropoxy-phenyl)-N-[1-(4-methoxy-benzyl)-1H-pyrazol-3-yl]-acetamide], the IC50 is 0.074 µM.

In the case of `O=C(Cc1ccc(OC2CC2)cc1)Nc1ccn(Cc2ccc(F)c(F)c2)n1` [Example 66, 2-(4-Cyclopropoxy-phenyl)-N-[1-(3,4-difluoro-benzyl)-1H-pyrazol-3-yl]-acetamide], the IC50 is 0.019 µM.

With `O=C(Cc1ccc(N2CCC(F)(F)C2)cc1)Nc1ccn(Cc2ccc(F)c(F)c2)n1` [Example 67, N-[1-(3,4-Difluoro-benzyl)-1H-pyrazol-3-yl]-2-[4-(3,3-difluoro-pyrrolidin-1-yl)-phenyl]-acetamide], the IC50 was found to be 0.0034 µM.

For `O=C(Cc1ccc(N2CC[C@@H](F)C2)cc1)Nc1ccn(Cc2ccc(F)c(F)c2)n1` [Example 68, N-[1-(3,4-Difluoro-benzyl)-1H-pyrazol-3-yl]-2-[4-((R)-3-fluoro-pyrrolidin-1-yl)-phenyl]-acetamide], the IC50 stood at 0.0048 µM.

`N#Cc1ccc(Cn2ccc(NC(=O)Cc3ccc(N4CC[C@@H](F)C4)cc3)n2)cc1` [Example 69, N-[1-(4-Cyano-benzyl)-1H-pyrazol-3-yl]-2-[4-((R)-3-fluoro-pyrrolidin-1-yl)-phenyl]-acetamide]: the IC50 turned out to be 0.016 µM.

Take `O=C(Cc1ccc(N2CC[C@@H](F)C2)cc1)Nc1ccn(Cc2ccc(F)cc2)n1` [Example 70, N-[1-(4-Fluoro-benzyl)-1H-pyrazol-3-yl]-2-[4-((R)-3-fluoro-pyrrolidin-1-yl)-phenyl]-acetamide]: the IC50 was determined as 0.011 µM.

Turning to `CC(C)c1ccc(CC(=O)Nc2ccn(Cc3ccc(C#N)cn3)n2)cc1` [Example 71, N-[1-(5-Cyano-pyridin-2-ylmethyl)-1H-pyrazol-3-yl]-2-(4-isopropyl-phenyl)-acetamide], the IC50 worked out at 0.06 µM.

For the compound `N#Cc1ccc(Cn2ccc(NC(=O)Cc3ccc(N4CC(F)C4)cc3)n2)cc1` [Example 72, N-[1-(4-Cyano-benzyl)-1H-pyrazol-3-yl]-2-[4-(3-fluoro-azetidin-l-yl)-phenyl]-acetamide], the IC50 was found to be 0.046 µM.

As for `O=C(Cc1ccc(N2CC(F)C2)cc1)Nc1ccn(Cc2ccc(F)cc2)n1` [Example 73, 2-[4-(3-Fluoro-azetidin-1-yl)-phenyl]-N-[1-(4-fluoro-benzyl)-1H-pyrazol-3-yl]-acetamide], the IC50 stood at 0.0079 µM.

As for `N#Cc1ccc(Cn2ccc(NC(=O)Cc3ccc(N4CC[C@H](F)C4)cc3)n2)cc1` [Example 74, N-[1-(4-Cyano-benzyl)-1H-pyrazol-3-yl]-2-[4-((S)-3-fluoro-pyrrolidin-1-yl)-phenyl]-acetamide], the IC50 is 0.014 µM.

As to `O=C(Cc1ccc(N2CC[C@H](F)C2)cc1)Nc1ccn(Cc2ccc(F)cc2)n1` [Example 75, N-[1-(4-Fluoro-benzyl)-1H-pyrazol-3-yl]-2-[4-((S)-3-fluoro-pyrrolidin-1-yl)-phenyl]-acetamide], the IC50 was determined as 0.0052 µM.

Consider `N#Cc1ccc(Cn2ccc(NC(=O)Cc3ccc(N4CCC(F)(F)C4)cc3)n2)cc1` [Example 76, N-[1-(4-Cyano-benzyl)-1H-pyrazol-3-yl]-2-[4-(3,3-difluoro-pyrrolidin-1-yl)-phenyl]-acetamide], for which the IC50 turned out to be 0.0061 µM.

With `O=C(Cc1ccc(N2CCC(F)(F)C2)cc1)Nc1ccn(Cc2ccc(F)cc2)n1` [Example 77, 2-[4-(3,3-Difluoro-pyrrolidin-1-yl)-phenyl]-N-[1-(4-fluoro-benzyl)-1H-pyrazol-3-yl]-acetamide], the IC50 worked out at 0.0091 µM.

Regarding `N#Cc1ccc(Cn2ccc(NC(=O)Cc3ccc(C4CC4)cc3)n2)nc1` [Example 78, N-[1-(5-Cyano-pyridin-2-ylmethyl)-1H-pyrazol-3-yl]-2-(4-cyclopropyl-phenyl)-acetamide], the IC50 came to 0.275 µM.

On to `Cc1nccnc1-c1ccc(CC(=O)Nc2ccn(Cc3ccc(F)cc3)n2)cc1` [Example 80, N-[1-(4-Fluoro-benzyl)-1H-pyrazol-3-yl]-2-[4-(3-methyl-pyrazin-2-yl)-phenyl]-acetamide], for which the IC50 came to 0.092 µM.

For `O=C(Cc1ccc(-c2cnccn2)cc1)Nc1ccn(Cc2ccc(F)cc2)n1` [Example 81, N-[1-(4-Fluoro-benzyl)-1H-pyrazol-3-yl]-2-(4-pyrazin-2-yl-phenyl)-acetamide], the IC50 was 0.131 µM.

On to `O=C(Cc1ccc(-c2ccccn2)cc1)Nc1ccn(Cc2ccc(F)cc2)n1` [Example 82, N-[1-(4-Fluoro-benzyl)-1H-pyrazol-3-yl]-2-(4-pyridin-2-yl-phenyl)-acetamide], for which the IC50 was 0.033 µM.

For the compound `O=C(Cc1ccc(-c2cccnc2)cc1)Nc1ccn(Cc2ccc(F)cc2)n1` [Example 83, N-[1-(4-Fluoro-benzyl)-1H-pyrazol-3-yl]-2-(4-pyridin-3-yl-phenyl)-acetamide], the IC50 was found to be 0.026 µM.

With `O=C(Cc1ccc(-c2ccncc2)cc1)Nc1ccn(Cc2ccc(F)cc2)n1` [Example 84, N-[1-(4-Fluoro-benzyl)-1H-pyrazol-3-yl]-2-(4-pyridin-4-yl-phenyl)-acetamide], the IC50 was 0.018 µM.
